The assay can be described thus: Quantitative sensory evaluation, improvement of body taste and bitterness of single high-intensity sweeteners (Examples 1 and 3). Also on record: species or system human. The note with it: for Bitterness: control 0, <0 improved; for Bitterness / Body taste: n=12; for Body taste: control 0, >0 improved; for improvement of the body taste (conclusion in words): APM, sucralose or Ace-K solutions, Tables 6 to 8 and 13 to 15. On the procedure: The quantitative sensory evaluation test was performed as follows. As for standard solutions of each sweetener, the following compounds were used. The following standard solutions were adjusted so that they each have almost the same degree of sweetness.
iii) Sucralose (0.008 g/dl)
To distilled water containing each of the above sweeteners, γ-Glu-Cys-Gly (glutathione), γ-Glu-Val-Gly, or γ-Glu-Abu-Gly was added and mixed at concentrations of 0.0001 to 1 g/dl, and then the degree of the improvement of the body taste and the improvement of the bitterness on the sweet taste was measured.
When one of the mixtures is more acidic than the standard control solution, the pH of the sample solution was adjusted with NaOH to achieve a range of pH±0.2 with respect to the pH of the standard solution before use.
The sensory evaluation for the improvement of the body taste was performed with n=12 on the basis of the following criteria: a control (obtained by adding distilled water only and without adding glutathione and/or the peptide) was defined as 0, and by using the control as a standard, the following were defined: weak: −2 points; slightly weak: −1 point; slightly strong: 1 point, and strong: 2 points. A higher score than 0 means that the sample improved the body taste.
Alternatively, the sensory evaluation for the improvement of the bitterness was performed with n=12 on the basis of the following criteria: a control (obtained by adding distilled water only and without adding glutathione and/or the peptide) was defined as 0, and by using the control as a standard, the following were defined: weak: −2 points; slightly weak: −1 point; slightly strong: 1 point, and strong: 2 points. A lower score than 0 means that the sample improves the bitterness.
The quantitative sensory evaluation test was performed as follows. As for standard solutions of each sweetener, the following compounds were used. The following standard solutions have been adjusted so as they each have almost the same degree of sweetness.
To distilled water containing each sweeteners, γ-Glu-Val-Gly or cinacalcet was mixed as a sample at concentrations of 0.0001 to 1 g/dl, respectively, and then each degree of the improvement of the body taste and the improvement of the bitterness on the sweet taste was measured.
When a mixture is more acidic than the standard control solution, the pH of the mixture was adjusted with NaOH to achieve a range of pH±0.2 with respect to the pH of the standard solution before use.
The sensory evaluation for the improvement of the body taste was performed with n=12 on the basis of the following criteria: a control (obtained by adding distilled water only and without adding a sample) was defined as 0, and by using the control as a standard, the following were defined: weak: −2 points; slightly weak: −1 point; slightly strong: 1 point, and strong: 2 points. A higher score than 0 means that the sample improves the body taste.
Alternatively, the sensory evaluation for the improvement of the bitterness was performed with n=12 on the basis of the following criteria: a control (obtained with adding distilled water only and without adding a sample) was defined as 0, and by using the control as a standard, the following were defined: weak: −2 points; slightly weak: −1 point; slightly strong: 1 point, and strong: 2 points. A lower score than 0 means that the sample improves the bitterness.

The mark [1] stands for this setting: APM 0.025 g/dl, sample 0.0001 g/dl.
Where [2] appears, read: APM 0.025 g/dl, sample 0.001 g/dl.
Where [3] appears, read: Ace-K 0.025 g/dl, sample 0.0001 g/dl.
[4] abbreviates: Ace-K 0.025 g/dl, sample 0.001 g/dl.
Setting [5] is: sucralose 0.008 g/dl, sample 0.0001 g/dl.
Where [6] appears, read: sucralose 0.008 g/dl, sample 0.001 g/dl.
The mark [7] stands for this setting: APM 0.025 g/dl, sample 0.05 g/dl.
Where [8] appears, read: Ace-K 0.025 g/dl, sample 0.05 g/dl.
Setting [9] is: sucralose 0.008 g/dl, sample 0.05 g/dl.
Setting [10] is: APM 0.025 g/dl, sample 0.001 g/dl (γ-Glu-Abu-Gly of Table 6).
Setting [11] is: Ace-K 0.025 g/dl, sample 0.01 g/dl.
Where [12] appears, read: sucralose 0.008 g/dl, sample 0.01 g/dl.

*1 amine or outer side, *2 acyl side, *3 side chain or, on linkers, in order; H or OH if unused. Where no end group is shown, it is not given here. [ ]: non-standard residue; d: D form. γGlu = O=C(O)[C@H](CCC(=O)[*:2])N[*:1]; Abu = CC[C@H](N)C(=O)O

Turning to `C[C@@H](NCCCc1cccc(C(F)(F)F)c1)c1cccc2ccccc12` [Cinacalcet, (R)—N-(3-(3-(trifluoromethyl)phenyl)propyl)-1-(1-naphthyl)ethylamine, reference compound], the “improvement of the body taste (conclusion in words)” value was “improve the body taste at almost the same concentration”. In addition, under setting [1], the Bitterness is on record as −0.2 points and the Body taste is recorded as 0.8 points. Under setting [2], the Bitterness was −0.5 points and the Body taste worked out at 1.5 points. Under setting [3], the Taste profile result is “Sweet taste with growth is enhanced in middle”, the Bitterness was −0.2 points and the Body taste worked out at 0.6 points. Moreover, under setting [4], the Taste profile entry is “Sweet taste with growth is enhanced in middle”, the Bitterness is −0.3 points and the Body taste was 1.1 points. Under setting [5], the Bitterness is reported as −0.1 points and the Body taste came out at 0.5 points. Under setting [6], the Bitterness was −0.2 points and the Body taste is 1.1 points.

Turning to `N[C@@H](CCC(=O)N[C@@H](CS)C(=O)NCC(=O)O)C(=O)O` [γ-Glu-Cys-Gly, reference compound], the Taste profile result is on record as “Sweet taste is wholly enhanced” under setting [7] and “Sweet taste with growth is enhanced in middle” under setting [9]. Moreover, the Bitterness under setting [7] is listed as −0.5 points, the Bitterness under setting [8] is on record as −0.6 points and the Bitterness under setting [9] is recorded as 0 points. The Body taste runs as follows: under setting [7], 1.0 points; under setting [8], 1.0 points; under setting [9], 1.0 points.

Turning to [γGlu]-Val-Gly, the “improvement of the body taste (conclusion in words)” value is given as “improve the body taste at almost the same concentration”. Under setting [1], the Bitterness is recorded as −0.2 points and the Body taste came out at 0.5 points. For the same molecule, under setting [2], the Bitterness is reported as −0.5 points and the Body taste is 1.3 points. For the same molecule, under setting [3], the Taste profile result is on record as “Sweet taste with growth is enhanced in middle”, the Bitterness is reported as −0.6 points and the Body taste came out at 0.7 points. Under setting [4], the Taste profile entry is listed as “Sweet taste with growth is enhanced in middle”, the Bitterness is −1.2 points and the Body taste was found to be 1.2 points. Under setting [5], the Bitterness is on record as −0.1 points and the Body taste is on record as 0.7 points. Besides, under setting [6], the Bitterness is reported as −0.2 points and the Body taste is listed as 1.3 points.

In the case of [γGlu]-[Abu]-Gly, the Taste profile result is “Sweet taste is enhanced in initial taste” under setting [2] and “Sweet taste is enhanced in initial taste” under setting [10]. The Bitterness runs as follows: under setting [10], −0.1 points; under setting [2], −0.1 points; under setting [4], −0.6 points; under setting [11], −1.2 points; under setting [6], −0.1 points; under setting [12], −0.1 points. Further, the Body taste by setting is: under setting [10], 1.5 points; under setting [2], 0.7 points; under setting [4], 0.5 points; under setting [11], 1.1 points; under setting [6], 0.5 points; under setting [12], 1.0 points.

Source of the values: patent US9420813B2, “Sweetener” (AJINOMOTO CO., INC., priority 2007, dated 2016).
